Source: PMC12491701, “Discovery of an APP-selective BACE1 inhibitor for Alzheimer's disease” (Neurotherapeutics, 2025)
Like-named read-outs stand apart in the source and are kept apart here.

Columns and labels:
[1] = Efficacy testing in B254 mice; type: in vivo, mouse; conditions: both sexes, B254, mouse, brain, oral, 30 mg/kg BID, read-out: mean brain level of compound
Excerpt: (§1) B254 mice are an AD model comprising expression of human APP with Swedish and Indiana mutations along with a D664A substitution and endogenous murine tau, as described in Galvan et al.. In our in vivo studies, we detected impairment in learning and memory in B254 D664A mice at 5–6 months of age (end of chronic treatment) in the novel location and novel object spatial memory testing paradigms. We note that previous studies have reported conflicting findings for such impairments when using in the Morris Water Maze. […] In a later study performed by a different group, it was reported that at both 2–3 or 5–7 months of age B254 and J20 mice had similar abnormalities relative to non-transgenic mice in spatial and nonspatial learning and memory. Our findings were in alignment with the latter studies.
(§2) Male and female 4-5 month-old B254 mice in the subchronic and chronic treatment were administered FAH65 via pipette feeding by the method of Atcha et al. at a dose of 30 mg/kg BID (60 mg/kg/day). Mice were weighed before the first dose for the calculation of volume to be administered. The formulation used comprised FAH65 hydrochloride as a 40 mg/mL solution in water plus 30 mg/mL in strawberry syrup.
(§3) In the pilot subchronic study, mice were treated for 10 days, and in the follow-up study, for 26 days. One week before the end of the study, mice in the pilot study underwent Novel Object Recognition (NOR) memory testing, and mice in the follow-up chronic study underwent both NOR and Novel Location Recognition (NLR) testing as described elsewhere. Briefly, mice are introduced to two identical, parallel and evenly objects in an opaque 30 × 40 cm arena (box without a lid) with navigation marks on the wall, for 10 min. For Novel Location Recognition (NLR), after a 2.5-h interval, the mouse is returned to the arena wherein one identical object has been moved diagonally. The time spent and number of discreet interactions with the objects in the original location and in the new location over 10 min is recorded. The mouse is then removed from the arena, and after an additional 2.5-h interval, for the Novel Object Recognition (NOR) phase, is returned to the arena wherein the objects are in the original position, but one is a new, different object. The time spent and number of discreet interactions with the objects in the original location and in the new location over 10 min is recorded. The novelty preference was calculated by […].
(§4) For in vivo studies, Individual tissues were weighed and sonicated on ice with AlphaLISA Lysis Buffer complemented with HALT (Fisher catalog # 78446) to give a 10 % W/V sonicate. Total protein concentration was assessed by BCA assay (Fisher catalog # 23227) following manufacturer recommendations.
(§5) For the ELISA assay to assess sAPPβ levels in brain an IBL ELISA (kit #27733) specific for sAPPβ with the Swedish (K595 N/M596L) mutation that is present in the APP transgene of the mouse model used following the kit instructions. Briefly, 499 μL of EIA buffer was added to individual tubes for each sample, 1 μL of sample added, vortexed and centrifuged. To each assay plate well, 100 μL of sample was added, and the covered plate incubated overnight at 4 °C. The plate(s) was washed 4 times with 350 μL/well wash buffer, then 100 μL/well of labeled antibody added followed by incubation for 30 min at 4 °C. After five washes, 100 μL chromogen solution was added to each well and incubated for 30 min at RT in the dark. Stop solution (100 μL/well) was then added and the plate read at 450 nm. […]

B254 mice = assay: Efficacy testing in B254 mice; type: in vivo, mouse
Excerpt: as §1, §2, §3, §4, §5

BACE1 cleavage of PSGL1 = target: T1, BACE1 cleavage of PSGL1 (Homo sapiens, UniProt P56817); assay: PSGL1 assay (SEAP-PSGL1); type: cell-based; conditions: SEAP-PSGL1, HEK293
T1 construct: with or without full-length wild-type BACE1; expressed in transfected cells; host or cells: HEK293
Experimental: A cDNA construct encoding a human placental secreted alkaline phosphatase (SEAP)-PSGL1 (pAPtag5-PSGL1-β1) fusion protein was transfected in human embryonic kidney (HEK293) cells in a 6-well format with or without full-length wild-type BACE1 using Lipofectamine 2000 (Invitrogen). After 6–8 ​h transfection, the medium was replaced with DMEM containing the test compound at 10, 5, 1, 0.1 and 0.01 ​μM and 10 ​% heat-inactivated fetal bovine serum (FBS), and incubated for 24 ​h. SEAP activity was measured in the conditioned medium.

[2] = Brain tissue binding assay; type: in vitro ADME, mouse; conditions: brain homogenate, 2 µM compound
Experimental: The […]
KIAM = (tr – t0) / t0; Pm = (KIAM / MW4) x 1010
Compounds with a Pm >0.85 are predicted to be BBB permeable (CNS+) at pH 7.4.
Brain Tissue Binding Assay
Brain tissue was homogenized in PBS (pH 7.4) (1: 3 weight(mg)/volume(µL)) and the protein concentration determined using the Micro BCA™ Pr otein Assay Kit (Thermo Fisher Scientific, Cat#23235). Brain homogenate was diluted to 20 mg/mL in PBS (pH 7.4) and added to Slide-A-Lyzer™ MINI Dialysis Devices, 10K MWCO dialysis cups (Thermo Fisher Scientific, Cat#PI88401) in a 48-well plate containing PBS (500 µL; pH 7.4). 1 µL of 1 mM compound was added to the brain homogenate (final concentration: 2 µM compound, 0.5% DMSO) and incubated on a rocker for 4.5 hours at 37 °C. 50 µL of brain homogenate (within the dialysis cup) and PBS (within the 48-well plate) were transferred to new microcentrifuge tubes containing 200 µL of quenching reagent (100% acetonitrile) containing internal standard. Solutions were clarified by centrifugation (16,000 x g, 5 min) and the supernatants were transferred to new tubes and lyophilized. Samples were reconstituted in 100 µL of 50/50/0.1 (Water/Acetonitrile/Formic Acid) prior to analysis via LC-MS/MS.
The % of the unbound drug was calculated using the following equation: fubound = [normalized peak area in buffer side / normalized peak area in brain side] x 100

[3] = PK of FAH65E(-) in ApoE4-TR:5xFAD mice; type: in vivo, mouse; conditions: 30 mkd oral, from brain Fu
Experimental: A PK/PD study of FAH65E(-) hydrochloride was performed using ApoE4-TR:5xFAD mice that express APOE4 under the control of the endogenous mouse APOE promoter crossed to 5xFAD mice (Tg6799) which co-express five FAD mutations (APP K670 N/M671L + I716V + V717I and PS1 M146L + L286V) under the control of the neuron-specific mouse Thy-1 promoter. The resulting mice, on a 97 % C57Bl/6J and 3 % SJL background, are homozygous for APOE4 and hemizygous for the 5XFAD transgenes. Both male and female mice 6–8 months of age were used. Mice received two doses (a.m. and p.m.) of 30 mg/kg FAH65E(-) by oral gavage on day 1; on day 2, after a single dose (a.m.) mice were euthanized at 1, 2, 4 and 6 h, n = 3 per time point. FAH65 and sAPPβ levels in brain were determined in brain tissue by LC-MS (see Supplementary Methods) and ELISA , respectively.

[4] = chronic study, oral 30 mkd, 26 days

T1 sequence (P56817 46-501): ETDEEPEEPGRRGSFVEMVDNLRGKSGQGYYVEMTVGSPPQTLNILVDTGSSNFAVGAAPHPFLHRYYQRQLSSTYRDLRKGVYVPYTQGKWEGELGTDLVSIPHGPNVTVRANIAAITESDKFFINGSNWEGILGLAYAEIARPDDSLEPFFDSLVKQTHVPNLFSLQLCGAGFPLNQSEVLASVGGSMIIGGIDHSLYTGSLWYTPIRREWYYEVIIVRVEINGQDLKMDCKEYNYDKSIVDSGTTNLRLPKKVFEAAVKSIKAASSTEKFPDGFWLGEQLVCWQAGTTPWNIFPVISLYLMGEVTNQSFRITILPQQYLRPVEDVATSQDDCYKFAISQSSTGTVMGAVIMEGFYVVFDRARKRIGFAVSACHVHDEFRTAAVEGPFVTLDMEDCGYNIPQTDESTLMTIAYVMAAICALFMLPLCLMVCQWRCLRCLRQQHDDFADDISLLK

Cc1cc(C2(c3cccc(-c4cncnc4)c3)N=C(N)N(C)C2=O)ccc1OC(F)F (stereo not shown) [FAH65]
concentration at 2 h ([1]; chronic, 2 h after last day dosing): ~50 ng/g
concentration at 2 h ([1]; subchronic, 2 h after the last dose): ~20 ng/g
novelty preference in NOR vs. vehicle (B254 mice; [4]): significant increase
novelty preference in Novel Location Recognition (NLR) vs. vehicle (B254 mice; [4]): significant increase
brain level of Aβ1-42 vs. vehicle (B254 mice; chronic, 26 days): not significantly different
brain level of sAPPβ vs. vehicle (B254 mice; chronic, 26 days): not significantly different
sAPPα in brain tissue vs. vehicle (B254 mice; chronic, 26 days): significantly higher
sAPPβ/sAPPα ratio in brain tissue vs. vehicle (B254 mice; chronic, 26 days): significantly lower
Novel Object Recognition (NOR) performance vs. vehicle (B254 mice; pilot subchronic study, oral 30 mkd, 10 days): not significantly increased
GFAP, IP-10, Aβ1-38, Aβ1-40, Aβ1-42 and Aβ1-42/1-40 ratio in brain (MSD) vs. vehicle (B254 mice; subchronic study): no significant differences
APP β-CTF in brain tissue vs. vehicle (B254 mice; subchronic, 10 days): significant decrease
Aβ 1-42 in brain vs. vehicle (B254 mice; subchronic, 10 days): not significant
p-tau/t-tau ratio in brain vs. vehicle (B254 mice; subchronic, 10 days): not significant
EC50 (BACE1 cleavage of PSGL1): > 10 µM
Brain tissue binding, funbound [2]: 3.1%
Unbound brain concentration at Cmax [3]: 9.6 nM
